Results on one compound are retold here after PMC12914960, “Repurposing a detrimental antibody epitope as targeted therapeutics for sepsis and rheumatoid arthritis” (Military Medical Research, 2026).

Values joined by “and” are separate entries in the source; they are usually repeats but may differ in a detail not shown here. Equal entries are not always repeated. Where a SMILES comes first, the peptide text is derived from it.

In test [1] the test system is CAIA-induced joint cytokines and chemokines. Nature of the test: Cytokine antibody arrays of joint tissue of CAIA mice. Type of test: in vivo, mouse. Also noted: VCAM1 / sTNFRI / sTNFRII / MIP-1gamma / MIP2 / P-selectin: unit not given here. The protocol: The levels of cytokines and chemokines in mouse serum and joint tissue lysates, or human PBMC culture supernatants, were determined via murine or human cytokine antibody arrays (e.g., Cat. #AAM-CYM-3–8 or Cat. #AAH-CYT-3–8, RayBiotech Inc., Norcross, GA, USA) as previously described. For the sepsis model, blood samples were collected from the mice (n = 4) at 24 h post-CLP. For the CAIA model, soft tissues from the hindpaw and ankle joints were carefully harvested from normal (n = 2) and CAIA (n = 4) mice using a previously established protocol. Briefly, 0.5 g of fresh soft tissue was cut into 3 mm pieces and mixed with 400 µl of a hypertonic solution (500 ml of PBS with 4.5 g of NaCl and 2 × protease inhibitor cocktail) in a 10 ml syringe. Mechanical extrusion, involving 30 rapid back-and-forth movements of the plunger, was then performed. The expelled extracellular fluid was collected, immediately aliquoted, and stored at −20 °C until analysis. Cell-conditioned medium was collected from PBMC cultures after 16 h of stimulation. Arrays were performed according to the manufacturer’s protocol, followed by chemiluminescent detection and densitometric quantification as previously described.
Fig. S5 Representative cytokine antibody arrays depicting the effect of P2- 1 on collagen antibody- induced
arthritis (CAIA)- induced joint inflammation. Representative images from cyt okine antibody arrays of j oint
tissue lysates from 4 vehicle-treated CAIA mice and 4 P2-1- treated CAIA mice (harvested on Day 10). […]

The test system of test [2] is human PBMCs. Kind of test: RNA-seq of HMGB1-stimulated PBMCs. Type of test: cell-based. The procedure:
Total RNA was isolated from human PBMCs (n = 6 biological replicates) stimulated with HMGB1 in the absence or presence of P2-1 (5.0 or 10.0 µg/ml) via the RNeasy Mini Kit (Qiagen, Germantown, MD, USA) according to the manufacturer’s instructions. cDNA libraries were prepared using the TruSeq RNA Library Prep Kit v2 (Illumina, San Diego, CA, USA) and sequenced on an Illumina NovaSeq 6000 platform to generate 100 bp paired-end reads. Gene counts were quantified via StringTie and DESeq2 for differential gene expression analysis. Volcano plots and heatmaps were generated via ggplot2 and pheatmap packages in R, respectively. Genes with an adjusted P-value < 0.05 and a |log2 fold change|> 1 were considered differentially expressed. […]
custom-synthesized (Gen Script, Piscataway, NJ, USA). P2 -1 was engineered to: i) increase solubility by removing a w ater-insoluble phenylalanine (F) at the C-terminal residue 70 and introducing a water-soluble threonine (T) at N-t erminal residue 54; and ii) reduce oxidative susceptibility by substituting methionine (M) with norleucine (Nle) and cysteine (C) with serine (S), respectively. The pCTS -L-neutralizing mAbs (mAb2) and TN-neutrali zing mAbs (mAb8 and m Ab9) were generated in BALB/c and C57BL/6 m ice as previously described .
RNA sequencing (RNA- Seq) and bioinformatics analysis
Total RNA was isolated from human PBMCs (n= 6 biological replicates) stimulated with HMGB1 in the absence o r pres ence o f P2-1 (5.0 or 10.0 µg/ml) via the RNeasy Mini Kit (Qiagen, Germantown, MD, USA) according to the manufacturer ’s instructions. RNA quantity and quality were assessed via a NanoDrop spectrophotometer, which requires A260/280 and A260/230 ratios to both be > 1.8. Samples meeting these criteria were then sent to two sequencing facilities, where RNA integrity was further confirmed via an Agilent Bioanalyzer. Only samples with an RNA integrity number of 8 or above were accepted for RNA sequencing. cDNA libraries were prepared using the TruSeq RNA Library Prep Kit v2 (Illumina, San Diego, CA, USA) and sequenced on an Illumina NovaSeq 6000 platform to generat e 100 bp paired-end reads. Our data filtering criteria adhered to industry best practices to ensure data quality.
First, raw sequencing reads underwent quality assessment with FastQC, followed by adapter and low-quality nucleotide trimming using Trimmomatic v.0.36. Subsequently, the high- quality reads wer e aligned to the Homo sapiens GRCh38 reference genome using the STAR aligner v.2.5.2b. Following alignment, PCR duplicates were identified and removed with Picard tools to mitigate amplification bias. Before differential expression an alysis, the gene count matrix was filtered to retain only genes with a count-per-million (CPM) > 1 in at least three samples (n = 3, representing our smallest experimental group). This rigorous procedure ensured that analysis was perfo rmed on a robust set of reliably expressed gen es. Finally, gene counts were quantified via StringTie and DESeq2 for differential gene expression analysis. Volcano

Test [3] deals with T1, Recombinant human HMGB1 (Homo sapiens, UniProt P09429).
T1 construct: made in house; host or cells: E. coli BL21 (DE3) pLysS (given for the rat HMGB1 preparation)
T1 sequence (P09429 whole entry, looked up): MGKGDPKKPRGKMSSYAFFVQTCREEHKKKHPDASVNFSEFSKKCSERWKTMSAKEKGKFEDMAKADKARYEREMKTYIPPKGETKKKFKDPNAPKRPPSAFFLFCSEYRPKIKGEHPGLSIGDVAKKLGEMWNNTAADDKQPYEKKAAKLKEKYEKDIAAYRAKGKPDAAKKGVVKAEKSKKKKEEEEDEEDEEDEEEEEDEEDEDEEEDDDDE
Nature of the test: SPR binding to immobilized HMGB1 (OpenSPR). The conditions noted are these: 1:1 model. The protocol:
Binding kinetics between HMGB1 and P2-1 were measured via Nicoya Life Science gold nanoparticle-based OpenSPR technology (Kitchener, ON, Canada) as previously described. Recombinant human HMGB1 was immobilized onto a carboxyl sensor chip, and the P2-1 peptide was flowed over the immobilized HMGB1 at various concentrations in HEPES-buffered saline with poloxamer (HBS-P buffer, GE Healthcare, Chicago, IL, USA). The response units were recorded over time, and binding affinity was estimated as the equilibrium dissociation constant KD using Trace Drawer Kinetic Data Analysis v.1.6.1 (Nicoya Life Science). Given the 1:1 stoichiometry of the HMGB1-P2-1 interaction predicted by ClusPro protein-protein docking (Additional file 1: Fig. S2), we applied a 1:1 interaction algorithm to determine the association rate constant (ka), dissociation rate constant (kd), and equilibrium dissociation constant (KD) from three independent experiments (n = 3 technical replicates). […]
interaction between high mobility group box 1 (HMGB1) and P2- 1. SPR plots showing the interaction between immobilized HMGB1 and different concentrations of the P2- 1 analyte. Experimental binding responses (blue, purple, and yellow traces) are shown with their corresponding global fits (black curves) via a 1:1 interaction model. The associated table summarizes the globally fitted kinetic parameters, including the maximum b inding capacity (Bmax), association rat e constant (ka), dissociation rat e con stant (kd), and other goodness-of-fit metrics (Chi2). The relatively low Chi2 value indicated a good fit bet ween
(1 picture or pasted object on this page, not shown here)
(In general: Surface plasmon resonance follows binding to a sensor surface in real time, without labels.)

Setting [4] is: CAIA + P2-1, joint tissue Day 10, individual values, P = 0.00077753.

Broadly, the KD is a measure of binding affinity in units of concentration. With `CCCC[C@H](NC(=O)[C@H](Cc1c[nH]cn1)NC(=O)[C@@H](NC(=O)[C@H](CCCCN)NC(=O)[C@@H](N)[C@@H](C)O)C(C)C)C(=O)N[C@@H](CCCCN)C(=O)N[C@@H](CO)C(=O)N[C@@H](Cc1ccccc1)C(=O)N[C@@H](CC(C)C)C(=O)N[C@@H](C)C(=O)N[C@@H](Cc1ccccc1)C(=O)N[C@@H](CCC(N)=O)C(=O)N[C@H](C(=O)N[C@@H](CCCCN)C(=O)N[C@H](C(=O)O)[C@@H](C)O)[C@@H](C)O` [P2-1] (HELM PEPTIDE1{T.K.V.H.[Nle].K.S.F.L.A.F.Q.T.K.T}$$$$V2.0; N-terminus and C-terminus assumed), the VCAM1 in test [1] (CAIA + P2-1, joint tissue Day 10, individual values, P = 0.0007706) was 4 and 4.5 and 8.2 and 10.3 and 3.3 and 1.2 and 0.7. Also, the sTNFRI in test [1] (setting [4]) was 23.4 and 20.4 and 17.4 and 17 and 24.9 and 22.3 and 40 and 36.8. Further, the sTNFRII in test [1] (setting [4]) was 12.4 and 11.7 and 6.5 and 5.7 and 3.2 and 2.8 and 5.8 and 5.9. Also, in test [1] (CAIA + P2-1, joint tissue Day 10, individual values, P = 0.00163), the MIP-1gamma is 39.6 and 44.2 and 29 and 33.7 and 41.8 and 44.8 and 49.9 and 50.4. In test [1] (CAIA + P2-1, joint tissue Day 10, individual values, P = 0.02067), the MIP2 is 2.5 and 2.7 and 4.3 and 4.8 and 5.9 and 7.2 and 5.1 and 5.2. Also, the P-selectin in test [1] (CAIA + P2-1, joint tissue Day 10, individual values, P = 0.04584) was 3.6 and 4 and 3.4 and 5.3 and 5.6 and 7.5 and 8. For the same compound, the “joint inflammation, in words” value in test [1] (P2-1 prophylactic) is “significantly reducing joint levels of sTNFRI and sTNFRII, the chemokine MIP-1γ/CCL9, and VCAM-1”. In addition, the “joint tissue inflammation, in words” value in test [1] (P2-1 therapeutic, sTNFRI, sTNFRII, MIP-1γ/CCL9, VCAM-1, Day 10) is “significantly reduced CAIA-induced joint tissue inflammation”. Besides, the “Ctsl mRNA upregulation” value in test [2] (HMGB1 + P2-1 5.0 µg/ml, human PBMCs) is 2.4 ± 0.1 -fold. In test [2] (HMGB1 with P2-1, human PBMCs), the “HMGB1-induced transcriptional changes, in words” value was “did not broadly reverse HMGB1-induced transcriptional changes in most genes”. Moreover, the KD in test [3] (Exp 1) was 14.8 nM; in test [3] (Exp 2), 33.5 nM; in test [3] (Exp 3), 2.3 nM.
